# Patent US20260285850A1, “SUBSTITUTED OXAZOLIDINONES AND IMIDAZOLINONES AS HERBICIDES” (FMC CORPORATION, priority 2023, published 2026)
# What was measured:
# Type in all cases: in vivo
# rice (Oryza sativa) = test: Test B flooded paddy test, visual plant response rating 0-100; conditions: 250 g ai/ha, Flood, applied to paddy water, evaluated after 13 days
# How it was run: (§1)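 Visual scores versus untreated controls were recorded 13 days after treatment of greenhouse-held plants. At the 2-leaf stage, pots were flooded 3 cm above the soil surface and compounds added straight to the water.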
# [1] = tested on: barnyardgrass (Echinochloa crusgalli); test: as above; conditions: 250 g ai/ha, Flood, applied to paddy water, evaluated after 13 days
# How it was run: as §1
# [2] = tested on: sedge, umbrella (small-flower umbrella sedge, Cyperus difformis); test: as above; conditions: 250 g ai/ha, Flood, applied to paddy water, evaluated after 13 days
# How it was run: as §1
# [3] = tested on: ducksalad (Heteranthera limosa); test: as above; conditions: 250 g ai/ha, Flood, applied to paddy water, evaluated after 13 days
# How it was run: as §1
# [4] = tested on: horseweed (Erigeron canadensis); test: Test A postemergence application, visual injury rating 0-100; conditions: 10 days
# How it was run: (§2)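 Loam-sand pots got test material in surfactant-containing solvent, either as a directed soil spray before emergence or on plants at the one- to two-leaf stage. Visual injury (0-100) was read after ten greenhouse days.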
# [5] = tested on: oat, wild (wild oat, Avena fatua); test: as above; conditions: 10 days
# How it was run: as §2
# corn (Zea mays) [6] = test: as above; conditions: 10 days
# How it was run: as §2
# [7] = tested on: ryegrass, Italian (italian ryegrass, Lolium multiflorum); test: as above; conditions: 10 days
# How it was run: as §2
# [8] = tested on: ragweed (common ragweed, Ambrosia artemisiifolia); test: as above; conditions: 10 days
# How it was run: as §2
# [9] = tested on: galium (catchweed bedstraw, Galium aparine); test: as above; conditions: 10 days
# How it was run: as §2
# [10] = tested on: barnyardgrass (Echinochloa crus-galli); test: as above; conditions: 10 days
# How it was run: as §2
# soybean (Glycine max) [11] = test: as above; conditions: 10 days
# How it was run: as §2
# [12] = tested on: wheat (Triticum aestivum); test: as above; conditions: 10 days
# How it was run: as §2
# [13] = tested on: green foxtail (Setaria viridis); test: as above; conditions: 10 days
# How it was run: as §2
# [14] = tested on: palmer (palmer amaranth, palmer pigweed, Amaranthus palmeri); test: as above; conditions: 10 days
# How it was run: as §2
# kochia (Bassia scoparia) [15] = test: as above; conditions: 10 days
# How it was run: as §2
# [16] = tested on: blackgrass (Alopecurus myosuroides); test: as above; conditions: 10 days
# How it was run: as §2
# [17] = tested on: oat, wild (wild oat, Avena fatua); test: Test A preemergence soil spray, visual injury rating 0-100; conditions: 10 days, 0 = no effect, 100 = complete control
# How it was run: as §2
# corn (Zea mays) [18] = test: as above; conditions: 10 days, 0 = no effect, 100 = complete control
# How it was run: as §2
# [19] = tested on: ragweed (common ragweed, Ambrosia artemisiifolia); test: as above; conditions: 10 days, 0 = no effect, 100 = complete control
# How it was run: as §2
# [20] = tested on: barnyardgrass (Echinochloa crus-galli); test: as above; conditions: 10 days, 0 = no effect, 100 = complete control
# How it was run: as §2
# soybean (Glycine max) [21] = test: as above; conditions: 10 days, 0 = no effect, 100 = complete control
# How it was run: as §2
# [22] = tested on: wheat (Triticum aestivum); test: as above; conditions: 10 days, 0 = no effect, 100 = complete control
# How it was run: as §2
# [23] = tested on: green foxtail (Setaria viridis); test: as above; conditions: 10 days, 0 = no effect, 100 = complete control
# How it was run: as §2
# [24] = tested on: palmer (palmer amaranth, palmer pigweed, Amaranthus palmeri); test: as above; conditions: 10 days, 0 = no effect, 100 = complete control
# How it was run: as §2
# kochia (Bassia scoparia) [25] = test: as above; conditions: 10 days, 0 = no effect, 100 = complete control
# How it was run: as §2
# [26] = tested on: blackgrass (Alopecurus myosuroides); test: as above; conditions: 10 days, 0 = no effect, 100 = complete control
# How it was run: as §2
# [27] = 31 g ai/ha, postemergence, 0 = no effect, 100 = complete control
# [28] = Postemergence, 125 g ai/ha, 0 is no effect, 100 is complete control
smiles,measurement,setting,value
CC(C)OC(=O)C1=CCC(NC(=O)C2(C)CN(c3cc(F)cc(F)c3)C(=O)O2)C1 (centres unmarked) [Compound 5],"Plant response rating, Rice (0 to 100 scale, 0 is no effect and 100 is complete control)",rice (Oryza sativa),20
same,"Plant response rating, Barnyardgrass (0 to 100 scale, 0 is no effect and 100 is complete control)",[1],65
same,"Plant response rating, Sedge, Umbrella (0 to 100 scale, 0 is no effect and 100 is complete control)",[2],95
same,"Plant response rating, Ducksalad (0 to 100 scale, 0 is no effect and 100 is complete control)",[3],80
same,Horseweed plant response rating (0-100),[4]; [27],10
same,Horseweed plant response rating (0 to 100 scale),[4]; [28],50
same,"Oat, Wild plant response rating (0-100)",[5]; [27],90
same,"Oat, Wild plant response rating (0 to 100 scale)",[5]; [28],90
same,Corn plant response rating (0-100),corn (Zea mays) [6]; [27],60
same,Corn plant response rating (0 to 100 scale),corn (Zea mays) [6]; [28],100
same,"Ryegrass, Italian plant response rating (0-100)",[7]; [27],60
same,"Ryegrass, Italian plant response rating (0 to 100 scale)",[7]; [28],90
same,Ragweed plant response rating (0-100),[8]; [27],50
same,Ragweed plant response rating (0 to 100 scale),[8]; [28],70
same,Galium plant response rating (0-100),[9]; [27],80
same,Galium plant response rating (0 to 100 scale),[9]; [28],80
same,Barnyardgrass plant response rating (0-100),[10]; [27],100
same,Barnyardgrass plant response rating (0 to 100 scale),[10]; [28],100
same,Soybean plant response rating (0-100),soybean (Glycine max) [11]; [27],60
same,Soybean plant response rating (0 to 100 scale),soybean (Glycine max) [11]; [28],70
same,Wheat plant response rating (0-100),[12]; [27],90
same,Wheat plant response rating (0 to 100 scale),[12]; [28],90
same,"Foxtail, Green plant response rating (0-100)",[13]; [27],30
same,"Foxtail, Green plant response rating (0 to 100 scale)",[13]; [28],90
same,"Amaranth, Palmer plant response rating (0-100)",[14]; [27],40
same,"Amaranth, Palmer / Pigweed, Palmer plant response rating (0 to 100 scale)",[14]; [28],50
same,Kochia plant response rating (0-100),kochia (Bassia scoparia) [15]; [27],30
same,Kochia plant response rating (0 to 100 scale),kochia (Bassia scoparia) [15]; [28],80
same,Blackgrass plant response rating (0-100),[16]; [27],50
same,Blackgrass plant response rating (0 to 100 scale),[16]; [28],90
same,"Oat, Wild plant response rating (0-100)",[17]; 31 g ai/ha,20
same,"Oat, Wild plant response rating (0 to 100 scale)",[17]; 125 g ai/ha,90
same,Corn plant response rating (0-100),corn (Zea mays) [18]; 31 g ai/ha,0
same,Corn plant response rating (0 to 100 scale),corn (Zea mays) [18]; 125 g ai/ha,50
same,Ragweed plant response rating (0-100),[19]; 31 g ai/ha,0
same,Ragweed plant response rating (0 to 100 scale),[19]; 125 g ai/ha,0
same,Barnyardgrass plant response rating (0-100),[20]; 31 g ai/ha,0
same,Barnyardgrass plant response rating (0 to 100 scale),[20]; 125 g ai/ha,100
same,Soybean plant response rating (0-100),soybean (Glycine max) [21]; 31 g ai/ha,0
same,Soybean plant response rating (0 to 100 scale),soybean (Glycine max) [21]; 125 g ai/ha,60
same,Wheat plant response rating (0-100),[22]; 31 g ai/ha,0
same,Wheat plant response rating (0 to 100 scale),[22]; 125 g ai/ha,80
same,"Foxtail, Green plant response rating (0-100)",[23]; 31 g ai/ha,20
same,"Foxtail, Green plant response rating (0 to 100 scale)",[23]; 125 g ai/ha,100
same,"Amaranth, Palmer plant response rating (0-100)",[24]; 31 g ai/ha,20
same,"Amaranth, Palmer plant response rating (0 to 100 scale)",[24]; 125 g ai/ha,100
same,Kochia plant response rating (0-100),kochia (Bassia scoparia) [25]; 31 g ai/ha,0
same,Kochia plant response rating (0 to 100 scale),kochia (Bassia scoparia) [25]; 125 g ai/ha,90
same,Blackgrass plant response rating (0-100),[26]; 31 g ai/ha,30
same,Blackgrass plant response rating (0 to 100 scale),[26]; 125 g ai/ha,40
